Our source for the IC50 values is patent publication US11066396B2 (priority 2016, dated 2021).

Where only a bound is given, the exact number is not on record here.

In general, IC50 refers to the point on the concentration scale where inhibition reaches its midpoint.

One assay addresses HDAC5 (Homo sapiens (Human), UniProt Q9UQL6). The conditions noted are these: read-out: HDAC5 IC50.
A further assay concerns the target HDAC8 (Homo sapiens (Human), UniProt Q9BY41). The following applies: read-out: HDAC8 IC50.
A further assay concerns the target HDAC1 (Homo sapiens (Human), UniProt Q13547). The conditions noted are these: read-out: HDAC1 IC50.

HDAC1, sequence (Q13547 whole entry): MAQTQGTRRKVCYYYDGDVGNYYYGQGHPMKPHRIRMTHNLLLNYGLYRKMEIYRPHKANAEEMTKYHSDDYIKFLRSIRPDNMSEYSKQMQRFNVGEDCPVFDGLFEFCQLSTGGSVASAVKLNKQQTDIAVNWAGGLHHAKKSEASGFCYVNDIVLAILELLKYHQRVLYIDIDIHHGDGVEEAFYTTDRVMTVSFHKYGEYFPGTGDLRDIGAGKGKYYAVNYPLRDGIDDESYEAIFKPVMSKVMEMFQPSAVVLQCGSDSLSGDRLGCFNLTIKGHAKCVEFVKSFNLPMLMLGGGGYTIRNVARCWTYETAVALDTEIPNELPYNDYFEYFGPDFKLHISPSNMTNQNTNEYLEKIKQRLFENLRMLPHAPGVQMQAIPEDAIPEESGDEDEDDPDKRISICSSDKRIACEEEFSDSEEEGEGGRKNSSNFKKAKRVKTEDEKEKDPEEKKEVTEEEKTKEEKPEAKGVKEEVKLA
HDAC5, sequence (Q9UQL6 656-1122): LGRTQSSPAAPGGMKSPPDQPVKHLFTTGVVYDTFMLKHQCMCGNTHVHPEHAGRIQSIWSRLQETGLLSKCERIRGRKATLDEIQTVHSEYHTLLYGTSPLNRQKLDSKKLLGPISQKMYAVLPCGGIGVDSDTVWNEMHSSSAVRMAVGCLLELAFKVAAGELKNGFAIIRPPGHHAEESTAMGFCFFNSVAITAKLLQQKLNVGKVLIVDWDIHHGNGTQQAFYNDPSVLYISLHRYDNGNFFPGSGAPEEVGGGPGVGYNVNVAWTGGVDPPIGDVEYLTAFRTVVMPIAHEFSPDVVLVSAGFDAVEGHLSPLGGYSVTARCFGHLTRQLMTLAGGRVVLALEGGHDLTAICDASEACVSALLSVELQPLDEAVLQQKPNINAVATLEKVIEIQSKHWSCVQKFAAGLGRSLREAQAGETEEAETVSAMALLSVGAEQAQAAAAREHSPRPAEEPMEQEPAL
HDAC8, sequence (Q9BY41 whole entry): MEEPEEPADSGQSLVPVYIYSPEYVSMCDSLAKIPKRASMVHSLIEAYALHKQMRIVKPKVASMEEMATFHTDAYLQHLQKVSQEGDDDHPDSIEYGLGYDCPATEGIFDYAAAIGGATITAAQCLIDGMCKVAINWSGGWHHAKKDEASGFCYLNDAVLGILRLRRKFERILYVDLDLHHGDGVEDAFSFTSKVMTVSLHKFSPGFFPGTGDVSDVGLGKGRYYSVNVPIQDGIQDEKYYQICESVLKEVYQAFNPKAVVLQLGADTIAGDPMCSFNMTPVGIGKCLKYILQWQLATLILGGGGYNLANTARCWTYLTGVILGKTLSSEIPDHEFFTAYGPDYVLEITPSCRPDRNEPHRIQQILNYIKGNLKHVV

In the case of `O=C(N1CCOCC1)N(Cc1ccc(-c2noc(C(F)(F)F)n2)cn1)c1cccc(C(F)(F)F)c1` [Example 49, N-((5-(5-(trifluoromethyl)-1,2,4-oxadiazol-3-yl)pyridin-2-yl)methyl)-N-(3-(trifluoromethyl)phenyl)morpholine-4-carboxamide], the figures for the half-maximal inhibitory concentration (IC50) on HDAC5, at HDAC8 and on HDAC1 were 1900 nM, 10000 nM and 1000 nM, respectively.
As for `O=C(C1CCS(=O)(=O)CC1)N(Cc1ccc(-c2noc(C(F)(F)F)n2)cn1)c1cccc(F)c1` [Example 55, N-(3-fluorophenyl)-N-((5-(5-(trifluoromethyl)-1,2,4-oxadiazol-3-yl)pyridin-2-yl)methyl)tetrahydro-2H-thiopyran-4-carboxamide 1,1-dioxide], the 50% inhibitory concentration (IC50) on HDAC5 was found to be 1100 nM; at HDAC8, 2300 nM; on HDAC1, 250 nM.
`O=C(C1CCOCC1)N(Cc1ccc(-c2noc(C(F)(F)F)n2)cn1)c1cccc(F)c1` [Example 60, N-(3-fluorophenyl)-N-((5-(5-(trifluoromethyl)-1,2,4-oxadiazol-3-yl)pyridin-2-yl)methyl)tetrahydro-2H-pyran-4-carboxamide]: the IC50 turned out to be 650 nM on HDAC5, 2100 nM on HDAC8 and 230 nM on HDAC1.
With `O=C(Cn1cncn1)N(Cc1ccc(-c2noc(C(F)(F)F)n2)cc1)c1cccc(C(F)(F)F)c1` [Example 68, 2-(1H-1,2,4-triazol-1-yl)-N-(4-(5-(trifluoromethyl)-1,2,4-oxadiazol-3-yl)benzyl)-N-(3-(trifluoromethyl)phenyl)acetamide], the IC50 stood at 500 nM on HDAC5, 2000 nM on HDAC8 and 690 nM on HDAC1.
For `CCc1nnc([C@@H]2CCC(=O)N2c2cc(F)c(-c3noc(C(F)(F)F)n3)cc2F)o1` [Example 105, (S)-1-(2,5-difluoro-4-(5-(trifluoromethyl)-1,2,4-oxadiazol-3-yl)phenyl)-5-(5-ethyl-1,3,4-oxadiazol-2-yl)pyrrolidin-2-one], the figures for the IC50 on HDAC5, on HDAC8 and at HDAC1 were 18 nM, 6600 nM and 710 nM, respectively.
In the case of `Cn1c([C@@H]2CCC(=O)N2c2ccc(-c3noc(C(F)(F)F)n3)cc2)nc2ccccc21` [Example 108, (S)-5-(1-methyl-1H-benzo[d]imidazol-2-yl)-1-(4-(5-(trifluoromethyl)-1,2,4-oxadiazol-3-yl)phenyl)pyrrolidin-2-one], the IC50 at HDAC5 came out at 120 nM; at HDAC8 it was 2900 nM; at HDAC1, 2000 nM.
`O=C1CCC(c2ccccc2Cl)N1c1ccc(-c2noc(C(F)(F)F)n2)cc1F` (stereo not drawn) [Example 117, 5-(2-chlorophenyl)-1-(2-fluoro-4-(5-(trifluoromethyl)-1,2,4-oxadiazol-3-yl)phenyl)pyrrolidin-2-one]: the figures for the half-inhibitory concentration (IC50) on HDAC5, at HDAC8 and at HDAC1 were 140 nM, 3100 nM and 1800 nM, respectively.
In the case of `Cc1noc([C@@H]2CCC(=O)N2c2ccc(-c3noc(C(F)(F)F)n3)cc2)n1` [Example 122, (S)-5-(3-methyl-1,2,4-oxadiazol-5-yl)-1-(4-(5-(trifluoromethyl)-1,2,4-oxadiazol-3-yl)phenyl)pyrrolidin-2-one], the 50% inhibitory concentration (IC50) at HDAC5 turned out to be 21 nM; on HDAC8 it was 1400 nM; at HDAC1 it was 730 nM.
As to `CC(C)(C)OC(=O)[C@@H]1CCC(=O)N1c1ccc(-c2noc(C(F)(F)F)n2)c(F)c1F` [Example 124, tert-butyl (S)-1-(2,3-difluoro-4-(5-(trifluoromethyl)-1,2,4-oxadiazol-3-yl)phenyl)-5-oxopyrrolidine-2-carboxylate], the IC50 at HDAC5 worked out at 17 nM; at HDAC8, 7400 nM; at HDAC1, 1300 nM.
The corresponding values for `O=C1COC[C@@H](c2ccccc2)N1c1ccc(-c2noc(C(F)(F)F)n2)cn1` [Example 126, (R)-5-phenyl-4-(5-(5-(trifluoromethyl)-1,2,4-oxadiazol-3-yl)pyridin-2-yl)morpholin-3-one] are 190 nM, 5000 nM and 1400 nM.
Consider `CC(C)(C)OC(=O)N1C[C@@H](c2cc(F)cc(F)c2)N(c2ccc(-c3noc(C(F)(F)F)n3)cn2)C(=O)C1C1CCOCC1` (stereo partly drawn) [Example 127, tert-butyl (5R)-5-(3,5-difluorophenyl)-3-oxo-2-(tetrahydro-2H-pyran-4-yl)-4-(5-(5-(trifluoromethyl)-1,2,4-oxadiazol-3-yl)pyridin-2-yl)piperazine-1-carboxylate], for which the half-inhibitory concentration (IC50) at HDAC5 was 360 nM; at HDAC8, greater than 45000 nM; on HDAC1, 7300 nM.
Turning to `FC(F)(F)c1nc(-c2ccc(N3CCOCC3c3ccccc3Cl)nc2)no1` (stereo not drawn) [Example 130, 3-(2-chlorophenyl)-4-(5-(5-(trifluoromethyl)-1,2,4-oxadiazol-3-yl)pyridin-2-yl)morpholine], the half-inhibitory concentration (IC50) worked out at 74 nM at HDAC5, 1500 nM on HDAC8 and 480 nM on HDAC1.
On the same counts, the results for `FC(F)(F)c1nc(-c2ccc(N3CCOCC3c3cccnc3)nc2)no1` (stereo not drawn) [Example 133, 3-(pyridin-3-yl)-4-(5-(5-(trifluoromethyl)-1,2,4-oxadiazol-3-yl)pyridin-2-yl)morpholine] are 31 nM, 350 nM and 160 nM.
As to `Cc1noc([C@@H]2CCCCN2c2ccc(-c3noc(C(F)(F)F)n3)cn2)n1` [Example 140, (S)-3-methyl-5-(1-(5-(5-(trifluoromethyl)-1,2,4-oxadiazol-3-yl)pyridin-2-yl)piperidin-2-yl)-1,2,4-oxadiazole], the 50% inhibitory concentration (IC50) at HDAC5 was 150 nM; at HDAC8, 1000 nM; at HDAC1, 930 nM.
The corresponding values for `O=C1COC[C@@H](c2ccccc2)N1c1cc(F)c(-c2noc(C(F)(F)F)n2)cc1F` [Example 160, (R)-4-(2,5-difluoro-4-(5-(trifluoromethyl)-1,2,4-oxadiazol-3-yl)phenyl)-5-phenylmorpholin-3-one] are 3 nM, 12000 nM and 1300 nM.
In the case of `FC(F)(F)c1nc(-c2ccnc(OCCc3cccc4cn[nH]c34)c2)no1` [Example 167], the IC50 on HDAC5 is 900 nM; at HDAC8 it was 480 nM; on HDAC1, 2500 nM.
On the same counts, the results for `Fc1cc(COc2ccccc2)ccc1-c1noc(C(F)(F)F)n1` [Example 172, 3-(2-Fluoro-4-(phenoxymethyl)phenyl)-5-(trifluoromethyl)-1,2,4-oxadiazole] are 760 nM, 45000 nM and 45000 nM.
On to `O=C(C1CCS(=O)(=O)CC1)N(Cc1ccc(-c2noc(C(F)(F)F)n2)nn1)c1cccc(C(F)(F)F)c1` [Example 173, N-((6-(5-(Trifluoromethyl)-1,2,4-oxadiazol-3-yl)pyridazin-3-yl)methyl)-N′-(3-(trifluoromethyl)phenyl)tetrahydro-2H-thiopyran-4-carboxamide 1,1-dioxide], for which the IC50 came out at 8300 nM at HDAC5, 6300 nM on HDAC8 and 1100 nM at HDAC1.
In the case of `O=C(NC(Cc1ccc(-c2noc(C(F)(F)F)n2)cn1)c1cccc(C(F)(F)F)c1)C(F)(F)F` (stereo not drawn) [Example 176, 2,2,2-Trifluoro-N-(2-(5-(5-(trifluoromethyl)-1,2,4-oxadiazol-3-yl)pyridin-2-yl)-1-(3-(trifluoromethyl)phenyl)ethyl)acetamide], the figures for the concentration for half-maximal inhibition (IC50) on HDAC5, at HDAC8 and on HDAC1 were 320 nM, 45000 nM and 1300 nM, respectively.
Consider `CC(=O)NC(Cc1ccc(-c2noc(C(F)(F)F)n2)cn1)c1cccc(C(F)(F)F)c1` (stereo not drawn) [Example 177, N-(2-(5-(5-(Trifluoromethyl)-1,2,4-oxadiazol-3-yl)pyridin-2-yl)-1-(3-(trifluoromethyl)phenyl)ethyl)acetamide], for which the IC50 on HDAC5 is 420 nM; at HDAC8, 4500 nM; at HDAC1 it was 530 nM.
With `CS(=O)(=O)NC(Cc1ccc(-c2noc(C(F)(F)F)n2)cn1)c1cccc(C(F)(F)F)c1` (stereo not drawn) [Example 178, N-(2-(5-(5-(Trifluoromethyl)-1,2,4-oxadiazol-3-yl)pyridin-2-yl)-1-(3-(trifluoromethyl)phenyl)ethyl)methanesulfonamide], the half-maximal inhibitory concentration (IC50) at HDAC5 came to 320 nM; at HDAC8, 3700 nM; on HDAC1, 410 nM.
On to `Cc1nc(Cl)cnc1COc1ccc(-c2noc(C(F)(F)F)n2)cn1` [Example 184, 3-(6-((5-Chloro-3-methylpyrazin-2-yl)methoxy)pyridin-3-yl)-5-(trifluoromethyl)-1,2,4-oxadiazole], for which the IC50 on HDAC5 amounted to 1100 nM; on HDAC8 it was 2700 nM; on HDAC1 it was 2300 nM.
Turning to `Cc1cc(C)nc(COc2nccc(-c3noc(C(F)(F)F)n3)c2Cl)n1` [Example 186, 3-(3-Chloro-2-((4,6-dimethylpyrimidin-2-yl)methoxy)pyridin-4-yl)-5-(trifluoromethyl)-1,2,4-oxadiazole], the IC50 at HDAC5 was determined as 850 nM; on HDAC8 it was 3900 nM; on HDAC1, 8100 nM.
The corresponding values for `Fc1c(-c2noc(C(F)(F)F)n2)ccnc1OCc1nc(C2CC2)no1` [Example 187, 3-Cyclopropyl-5-(((3-fluoro-4-(5-(trifluoromethyl)-1,2,4-oxadiazol-3-yl)pyridin-2-yl)oxy)methyl)-1,2,4-oxadiazole] are 220 nM, 1500 nM and 1500 nM.
Consider `O=C(COc1cc(-c2noc(C(F)(F)F)n2)ccn1)N1CCOCC1` [Example 190, 1-Morpholino-2-((4-(5-(trifluoromethyl)-1,2,4-oxadiazol-3-yl)pyridin-2-yl)oxy)ethan-1-one], for which the 50% inhibitory concentration (IC50) turned out to be 550 nM at HDAC5, 1100 nM at HDAC8 and 2200 nM on HDAC1.
Take `O=C(NCc1ccc(-c2noc(C(F)(F)F)n2)cc1)C1CCCC1` [Example 191, N-(4-(5-(Trifluoromethyl)-1,2,4-oxadiazol-3-yl)benzyl)cyclopentanecarboxamide]: the IC50 on HDAC5 was determined as 940 nM; at HDAC8, 2900 nM; on HDAC1, 2200 nM.
